# Source: ChEMBL document CHEMBL1201862, “PubChem BioAssay data set” (2004)
#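 Test compounds were applied to cells in 96-well plates for 48 hours at 5 doses. At the GI50, growth is halved.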 Active and inactive are the calls of the source. Rule as the data show it: active = GI50 up to about 1.1 µM and inactive = higher.
# Legend:
# Experiment in all cases: NCI-60 cell line screen, 48 h
# HCC 2998 = test system: HCC 2998
# SK-MEL-2 = test system: SK-MEL-2
# PC-3 = test system: PC-3
# SW-620 = test system: SW-620
# HOP-92 = test system: HOP-92
# SNB-19 = test system: SNB-19
# IGROV-1 = test system: IGROV-1
# DU-145 = test system: DU-145
# HT-29 = test system: HT-29
# SF-268 = test system: SF-268
# UO-31 = test system: UO-31
# MOLT-4 = test system: MOLT-4
# SR = test system: SR
# MDA-MB-231 = test system: MDA-MB-231
# CAKI-1 = test system: CAKI-1
# OVCAR-4 = test system: OVCAR-4
# NCI-H23 = test system: NCI-H23
# TK-10 = test system: TK-10
# COLO 205 = test system: COLO 205
# NCI/ADR-RES = test system: NCI/ADR-RES
# RXF 393 = test system: RXF 393
# MDA-MB-435 = test system: MDA-MB-435
# KM12 = test system: KM12
# UACC-257 = test system: UACC-257
# SN12C = test system: SN12C
# RPMI-8226 = test system: RPMI-8226
# BT-549 = test system: BT-549
# EKVX = test system: EKVX
# ACHN = test system: ACHN
# CCRF-CEM = test system: CCRF-CEM
# A498 = test system: A498
# K562 = test system: K562
# 786-0 = test system: 786-0
# M14 = test system: M14
# HCT-116 = test system: HCT-116
# OVCAR-3 = test system: OVCAR-3
# Malme-3M = test system: Malme-3M
# SK-MEL-5 = test system: SK-MEL-5
# HOP-62 = test system: HOP-62
# A549 = test system: A549
# SK-OV-3 = test system: SK-OV-3
# OVCAR-5 = test system: OVCAR-5
# MDA-N = test system: MDA-N
# NCI-H226 = test system: NCI-H226
# T47D = test system: T47D
# SF-539 = test system: SF-539
# HL-60 = test system: HL-60
# NCI-H522 = test system: NCI-H522
# U-251 = test system: U-251
# MCF7 = test system: MCF7
# SF-295 = test system: SF-295
# OVCAR-8 = test system: OVCAR-8
# Hs-578T = test system: Hs-578T
# LOX IMVI = test system: LOX IMVI
# UACC-62 = test system: UACC-62
# SK-MEL-28 = test system: SK-MEL-28
# NCI-H460 = test system: NCI-H460
# HCT-15 = test system: HCT-15
# SNB-75 = test system: SNB-75
structure (smiles),measurement,setting,value
C#CCCCOc1ncccn1,GI50,HCC 2998,> 100 µM (inactive)
same,GI50,SK-MEL-2,> 100 µM (inactive)
same,GI50,PC-3,> 100 µM (inactive)
same,GI50,SW-620,> 100 µM (inactive)
same,GI50,HOP-92,> 100 µM (inactive)
same,GI50,SNB-19,> 100 µM (inactive)
same,GI50,IGROV-1,> 100 µM (inactive)
same,GI50,DU-145,> 100 µM (inactive)
same,GI50,HT-29,> 100 µM (inactive)
same,GI50,SF-268,> 100 µM (inactive)
same,GI50,UO-31,> 100 µM (inactive)
same,GI50,MOLT-4,> 100 µM (inactive)
same,GI50,SR,> 100 µM (inactive)
same,GI50,MDA-MB-231,> 100 µM (inactive)
same,GI50,CAKI-1,> 100 µM (inactive)
same,GI50,OVCAR-4,> 100 µM (inactive)
same,GI50,NCI-H23,> 100 µM (inactive)
same,GI50,TK-10,> 100 µM (inactive)
same,GI50,COLO 205,> 100 µM (inactive)
same,GI50,NCI/ADR-RES,> 100 µM (inactive)
same,GI50,RXF 393,> 100 µM (inactive)
same,GI50,MDA-MB-435,> 100 µM (inactive)
same,GI50,KM12,> 100 µM (inactive)
same,GI50,UACC-257,> 100 µM (inactive)
same,GI50,SN12C,> 100 µM (inactive)
same,GI50,RPMI-8226,> 100 µM (inactive)
same,GI50,BT-549,> 100 µM (inactive)
same,GI50,EKVX,> 100 µM (inactive)
same,GI50,ACHN,> 100 µM (inactive)
same,GI50,CCRF-CEM,> 10 µM (inactive)
same,GI50,A498,> 100 µM (inactive)
same,GI50,K562,> 100 µM (inactive)
same,GI50,786-0,> 100 µM (inactive)
same,GI50,M14,> 100 µM (inactive)
same,GI50,HCT-116,> 100 µM (inactive)
same,GI50,OVCAR-3,> 100 µM (inactive)
same,GI50,Malme-3M,> 100 µM (inactive)
same,GI50,SK-MEL-5,> 100 µM (inactive)
same,GI50,HOP-62,> 100 µM (inactive)
same,GI50,A549,> 100 µM (inactive)
same,GI50,SK-OV-3,> 100 µM (inactive)
same,GI50,OVCAR-5,> 100 µM (inactive)
same,GI50,MDA-N,> 100 µM (inactive)
same,GI50,NCI-H226,> 100 µM (inactive)
same,GI50,T47D,> 100 µM (inactive)
same,GI50,SF-539,> 100 µM (inactive)
same,GI50,HL-60,> 100 µM (inactive)
same,GI50,NCI-H522,> 100 µM (inactive)
same,GI50,U-251,> 100 µM (inactive)
same,GI50,MCF7,> 100 µM (inactive)
same,GI50,SF-295,> 100 µM (inactive)
same,GI50,OVCAR-8,> 100 µM (inactive)
same,GI50,Hs-578T,> 100 µM (inactive)
same,GI50,LOX IMVI,> 100 µM (inactive)
same,GI50,UACC-62,> 100 µM (inactive)
same,GI50,SK-MEL-28,> 100 µM (inactive)
C[C@]12CCC(=O)C=C1C[C@@H](O)[C@@H]1[C@@H]2CC[C@@]2(C)[C@H]1CC[C@]2(C)O,GI50,HCC 2998,> 100 µM (inactive)
same,GI50,SK-MEL-2,> 100 µM (inactive)
same,GI50,PC-3,> 100 µM (inactive)
same,GI50,SW-620,> 100 µM (inactive)
same,GI50,HOP-92,> 100 µM (inactive)
same,GI50,SNB-19,> 100 µM (inactive)
same,GI50,IGROV-1,> 100 µM (inactive)
same,GI50,DU-145,> 100 µM (inactive)
same,GI50,HT-29,> 100 µM (inactive)
same,GI50,SF-268,> 100 µM (inactive)
same,GI50,UO-31,> 100 µM (inactive)
same,GI50,SR,> 100 µM (inactive)
same,GI50,MDA-MB-231,> 100 µM (inactive)
same,GI50,CAKI-1,> 100 µM (inactive)
same,GI50,OVCAR-4,> 100 µM (inactive)
same,GI50,NCI-H23,> 100 µM (inactive)
same,GI50,TK-10,> 100 µM (inactive)
same,GI50,COLO 205,> 100 µM (inactive)
same,GI50,NCI/ADR-RES,> 100 µM (inactive)
same,GI50,RXF 393,> 100 µM (inactive)
same,GI50,NCI-H460,> 100 µM (inactive)
same,GI50,MDA-MB-435,> 100 µM (inactive)
same,GI50,KM12,> 100 µM (inactive)
same,GI50,UACC-257,> 100 µM (inactive)
same,GI50,HCT-15,> 100 µM
same,GI50,SN12C,> 100 µM (inactive)
same,GI50,RPMI-8226,> 100 µM (inactive)
same,GI50,BT-549,> 100 µM (inactive)
same,GI50,EKVX,> 100 µM (inactive)
same,GI50,ACHN,> 100 µM (inactive)
same,GI50,CCRF-CEM,> 100 µM (inactive)
same,GI50,A498,> 100 µM (inactive)
same,GI50,K562,> 100 µM (inactive)
same,GI50,786-0,> 100 µM (inactive)
same,GI50,M14,> 100 µM (inactive)
same,GI50,HCT-116,> 100 µM (inactive)
same,GI50,OVCAR-3,> 100 µM (inactive)
same,GI50,Malme-3M,> 100 µM (inactive)
same,GI50,SK-MEL-5,> 100 µM (inactive)
same,GI50,HOP-62,> 100 µM (inactive)
same,GI50,A549,> 100 µM (inactive)
same,GI50,SK-OV-3,> 100 µM (inactive)
same,GI50,OVCAR-5,> 100 µM (inactive)
same,GI50,MDA-N,> 100 µM (inactive)
same,GI50,NCI-H226,> 100 µM (inactive)
same,GI50,T47D,> 100 µM (inactive)
same,GI50,SNB-75,> 100 µM (inactive)
same,GI50,HL-60,> 100 µM (inactive)
same,GI50,NCI-H522,> 100 µM (inactive)
same,GI50,U-251,> 100 µM (inactive)
same,GI50,MCF7,> 100 µM (inactive)
same,GI50,SF-295,> 100 µM (inactive)
same,GI50,OVCAR-8,> 100 µM (inactive)
same,GI50,Hs-578T,> 100 µM (inactive)
same,GI50,LOX IMVI,> 100 µM (inactive)
same,GI50,UACC-62,> 100 µM (inactive)
same,GI50,SK-MEL-28,> 100 µM (inactive)
